Measured values reported in patent US20040009594A1, “Method for amplifying natural killer t cells” (priority 2000, published 2004).
Where “and” joins values, the source holds several entries; their conditions need not be identical. Identical values can stand only once. Entries after “also recorded” stand apart in the source; their conditions may differ.

Assays:
Format in all cases: cell-based, human
[1] = test system: Vα24^+ NKT cells from PBMCs; test: Expansion of Vα24+ NKT cells from normal PBMCs by α-GalCer (flow cytometry)
Description: (§1) Buffy coat (crude PBMCs), prepared from 400 ml of whole blood drawn from a healthy person, was supplied by the Japanese Red Cross Blood Center. A cell fraction containing PBSCs (crude G-PBSCs) was obtained from patients undergone chemotherapy followed by a dose of 100 to 250 μg/body/day G-CSF subcutaneously for 6 to 10 days (Table 1) by performing apheresis between 2 and 24 hours after the last injection of G-CSF with COBE Spectra™ Cell Separator (LAKE WOOD, Colo. USA 80215) (Hematopoietic Stem Cells: Biology and Therapeutic Applications. Levit DJ, Mertelsmann R(eds), Marcel Dekker, Inc., New York, 1995, 611-630).
(§2) From the obtained crude PBMCs and crude G-PBSCs, mononuclear cell fractions (referred to as “PBMCs” and “G-PBSCs”, respectively) were prepared using Lympho-sepal density-gradient medium (Immuno-Biological Laboratories Gunma, Japan).
(§3) PBMCs and G-PBSCs obtained in (1) were cultured with RPMI-1640 supplemented with 2 mM L-glutamine, 1% pyruvate, 2% bicarbonate, 100 U/ml penicillin, 100 U/ml streptomycin (GIBCO BRL) in the presence of 100 U/ml IL-2 and 100 ng/ml of α-GlyCer. Cells were incubated in a water-vapor-saturated atmosphere containing 5% CO2 gas at 37° C. The cell number and characteristics of these cultured cells were examined on day 0 (d0) and day 12 (d12). As α-GlyCer, (2S,3S,4R)-1-O-(α-D-galactopyranosyl)-N-hexacosanoyl-2-amino-1,3,4-octadecanetriol; referred to as “α-GalCer”) prepared by Kirin Beer Kabushiki Kaisha was used.
(§4) Flow cytometry of the cultured cells was performed using a FACScan cytometer (Becton Dickinson, Sunyvale, Calif.) as follows. Fluorescein isothiocynate (FITC)-conjugated anti-Vα24 (C15), phycoerythrin (PE)-conjugated anti-Vβ11(C21), PE-conjugated anti-CD3, PE-conjugated anti-CD56, PE-conjugated anti-DC83 and PE-conjugated anti-CD8 were obtained from Immunotech (Marseilelles Cedex, France). FITC-conjugated PE-conjugated anti-CD161, PE-conjugated anti-IL-2Rβ, PE-conjugated anti-HLA-DR and PE-conjugated anti-CD4 were obtained from Becton Dickinson. PE-conjugated anti-CD86 was obtained from Pharmingen (San Diego, Calif.). PE-conjugated anti-CD57 was obtained from SIGMA (Saint Louis, Mo.) and used as iso-type controls. Cultured cells were harvested and resuspended in 10% fetal calf serum (FCS)-RPMI1620 medium at a density of 1×10^5/ml. After centrifugation for 3 min at 2000 rpm using MRX-150 high speed refrigerated micro centrifuges (TOMY SEIKO CO., LTD. Tokyo, Japan), the cells were resuspended in 50 μl of PBS containing 1 μl of antibodies described above and incubated for 30 min at 4° C. The cells were then washed twice with PBS, resuspended in PBS and stored at 4° C. until analysis. Data are shown as FSC, SSC, FL-1 indicating Vα24 or CD4, and FL-2 indicating Vβ11, CD8, CD3.

[2] = test system: Vα24^+ NKT cells from G-PBSCs; test: Expansion of Vα24+ NKT cells from G-PBSCs by α-GalCer (flow cytometry); details: IL-2 and α-GalCer (FIG. 5)
[3] = test system: Vα24^+ NKT cells from G-PBSCs; test: as above
Description: as §1, §2, §3, §4

[4] = normal PBMCs, 100 ng/ml α-GalCer + 100 U/ml IL-2, day 12, one line per donor (No. 1-5)
[5] = G-PBSCs of cancer patients, 100 ng/ml α-GalCer + 100 U/ml IL-2, day 12, one line per patient (No. 6-10)

CCCCCCCCCCCCCCCCCCCCCCCCCC(=O)N[C@@H](CO[C@H]1O[C@H](CO)[C@H](O)[C@H](O)[C@H]1O)[C@H](O)[C@H](O)CCCCCCCCCCCCCC [α-GalCer, (2S,3S,4R)-1-O-(α-D-galactopyranosyl)-N-hexacosanoyl-2-amino-1,3,4-octadecanetriol]
course of number of Vα24+ NKT cells after day 12 ([1]; PBMCs, IL-2 and α-GalCer (FIG. 5)): gradually decrease after day 12 | D12 NKT % α-GalCer (+) [1, 4]: 0.18% and 6.58% and 0.19% and 0.3% and 0.66% | D12 NKT (cell number) α-GalCer (+) [1, 4]: 2376 and 24346 and 9500 and 18300 and 20328 | α-GalCer (+)/(−) ([1]; normal PBMCs, day 12, with vs without α-GalCer, one line per donor (No. 1-5)): 2.2 and 15.5 and 1.0 and 4.1 and 4.5 | d12/d0 ([1]; normal PBMCs, with α-GalCer, day 12 vs day 0, one line per donor (No. 1-5)): 1.6 and 4.1 (2×) and 1.4 and 6.1 | course of number of Vα24+ NKT cells after day 12 [2]: continue to expand up to day 30 of culture | D12 NKT % α-GalCer (+) [3, 5]: 2.05% and 8.49% and 4.73% and 3.21% and 22.6% | D12 NKT (cell number) α-GalCer (+) [3, 5]: (51660); also recorded: (314130); also recorded: (520300); also recorded: (64200); also recorded: (1414375) | α-GalCer (+)/(−) ([3]; G-PBSCs, day 12, with vs without α-GalCer, one line per patient (No. 6-10)): 205.0 and 196.9 and 101.6 and 114.6 and 673.5 | d12/d0 ([3]; G-PBSCs, with α-GalCer, day 12 vs day 0, one line per patient (No. 6-10)): 34.4 and 314.1 and 104.1 and 32.1 and 1414.4 | amplification in G-PBSCs relative to PBMCs ([3]; day 12, IL-2 and α-GalCer): at least 10 fold
